{"source": "patent US11952586B2", "about": "“B-cell cultivation method” (Hoffmann-La Roche Inc., priority 2017, dated 2024)", "test_system": "single deposited B-cells", "assay": "co-cultivation of single deposited B-cells with EL-4 B5 cells; antigen binding immunoassay (HSA)", "assay_type": "cell-based, rabbit", "procedure": "Single cell sorted B-cells were cultured in 96-well plates with 200 μl/well EL-4 B5 medium with Pansorbin Cells (SAC) (Calbiochem (Merck), Darmstadt, Deutschland), EL-4 B5 cells (0-5×10^4/well) and rabbit thymocyte supernatant or cytokine mix, respectively, for 7 days at 37° C. in an atmosphere of 5% CO2 in the incubator. B-cell culture supernatants were removed for screening and the cells harvested immediately for variable region gene cloning or frozen at −80° C. in 100 μl RLT buffer (Qiagen, Hilden, Germany).\nThe assay was performed at room temperature (RT) on 384-well MaxiSorp microtiter plates (Thermo Scientific) with PBS (phosphate buffered saline) buffer supplemented with 0.5% Gelatin and 0.025% Tween®-20. The plates were coated with 0.5 μg/ml of human serum albumin (HSA, Sigma-Aldrich) for at least 2 hours to overnight. After washing (3×) with PBST (PBS with 0.1% Tween®-20) buffer the wells were blocked with PBS with 0.5% Gelatin and 0.1% Tween®-20. Again, the plates were washed three-times and afterwards dilutions of B-cell supernatants were added. After an incubation of 60 min and 3 washing steps with PBST a 1:4,000 dilution of a HRP-conjugated anti-rabbit IgG antibody (Amersham) was transferred to the wells and incubated for 60 min. Finally, the plates were repeatedly washed (6×) with PBST and developed with BM Blue® HRP substrate solution for 30 min. Absorbance was measured at 392-405 nm.", "key": {"[1]": {"details": "PMA 0.048 ng/ml, 3 Gy, 15k/Well"}, "[2]": {"details": "PMA 0.048 ng/ml, 4 Gy, 20k/Well"}, "[3]": {"details": "PMA 0.048 ng/ml, 5 Gy, 20k/Well"}, "[4]": {"details": "PMA 0.048 ng/ml, 8 Gy, 20k/Well"}, "[5]": {"details": "PMA 0.048 ng/ml, 50 Gy, 50k/Well"}, "[6]": {"details": "PMA 0.109 ng/ml, 3 Gy, 15k/Well"}, "[7]": {"details": "PMA 0.109 ng/ml, 4 Gy, 20k/Well"}, "[8]": {"details": "PMA 0.109 ng/ml, 5 Gy, 20k/Well"}, "[9]": {"details": "PMA 0.109 ng/ml, 8 Gy, 20k/Well"}, "[10]": {"details": "PMA 0.109 ng/ml, 50 Gy, 50k/Well"}, "[11]": {"details": "PMA 0.25 ng/ml, 50 Gy, 50k/Well"}, "[12]": {"details": "PMA 0.57 ng/ml, 50 Gy, 50k/Well"}, "[13]": {"details": "PMA 1.3 ng/ml, 3 Gy, 15k/Well, HSA immunized rabbit"}}}
{"smiles": "CCCCCCCCCCCCCC(=O)O[C@@H]1[C@@H](C)[C@@]2(O)[C@@H](C=C(CO)C[C@]3(O)C(=O)C(C)=C[C@@H]23)[C@@H]2C(C)(C)[C@]12OC(C)=O", "note": "[PMA, phorbol-12-myristate-13-acetate]", "values": [{"measurement": "HSA (absolute corrected) Freq./plate OD>c", "setting": "[1]", "value": 25, "unit": "% total"}, {"measurement": "HSA (absolute corrected) Freq./plate OD>c and rbIgG+", "setting": "[1]", "value": 48.8, "unit": "% IgG"}, {"measurement": "HSA (absolute corrected) Freq./plate OD>c", "setting": "[2]", "value": 36.9, "unit": "% total"}, {"measurement": "HSA (absolute corrected) Freq./plate OD>c and rbIgG+", "setting": "[2]", "value": 50, "unit": "% IgG"}, {"measurement": "HSA (absolute corrected) Freq./plate OD>c", "setting": "[3]", "value": 27.4, "unit": "% total"}, {"measurement": "HSA (absolute corrected) Freq./plate OD>c and rbIgG+", "setting": "[3]", "value": 38.3, "unit": "% IgG"}, {"measurement": "HSA (absolute corrected) Freq./plate OD>c", "setting": "[4]", "value": 42.9, "unit": "% total"}, {"measurement": "HSA (absolute corrected) Freq./plate OD>c and rbIgG+", "setting": "[4]", "value": 49.3, "unit": "% IgG"}, {"measurement": "HSA (absolute corrected) Freq./plate OD>c", "setting": "[5]", "value": 14.3, "unit": "% total"}, {"measurement": "HSA (absolute corrected) Freq./plate OD>c and rbIgG+", "setting": "[5]", "value": 58.3, "unit": "% IgG"}, {"measurement": "HSA (absolute corrected) Freq./plate OD>c", "setting": "[6]", "value": 9.5, "unit": "% total"}, {"measurement": "HSA (absolute corrected) Freq./plate OD>c and rbIgG+", "setting": "[6]", "value": 17.5, "unit": "% IgG"}, {"measurement": "HSA (absolute corrected) Freq./plate OD>c", "setting": "[7]", "value": 32.1, "unit": "% total"}, {"measurement": "HSA (absolute corrected) Freq./plate OD>c and rbIgG+", "setting": "[7]", "value": 42.2, "unit": "% IgG"}, {"measurement": "HSA (absolute corrected) Freq./plate OD>c", "setting": "[8]", "value": 42.9, "unit": "% total"}, {"measurement": "HSA (absolute corrected) Freq./plate OD>c and rbIgG+", "setting": "[8]", "value": 47.1, "unit": "% IgG"}, {"measurement": "HSA (absolute corrected) Freq./plate OD>c", "setting": "[9]", "value": 32.1, "unit": "% total"}, {"measurement": "HSA (absolute corrected) Freq./plate OD>c and rbIgG+", "setting": "[9]", "value": 41.5, "unit": "% IgG"}, {"measurement": "HSA (absolute corrected) Freq./plate OD>c", "setting": "[10]", "value": 9.5, "unit": "% total"}, {"measurement": "HSA (absolute corrected) Freq./plate OD>c and rbIgG+", "setting": "[10]", "value": 50, "unit": "% IgG"}, {"measurement": "HSA (absolute corrected) Freq./plate OD>c", "setting": "PMA 0.25 ng/ml, 3 Gy, 15k/Well", "value": 21.4, "unit": "% total"}, {"measurement": "HSA (absolute corrected) Freq./plate OD>c and rbIgG+", "setting": "PMA 0.25 ng/ml, 3 Gy, 15k/Well", "value": 45, "unit": "% IgG"}, {"measurement": "HSA (absolute corrected) Freq./plate OD>c", "setting": "PMA 0.25 ng/ml, 4 Gy, 20k/Well", "value": 33.3, "unit": "% total"}, {"measurement": "HSA (absolute corrected) Freq./plate OD>c and rbIgG+", "setting": "PMA 0.25 ng/ml, 4 Gy, 20k/Well", "value": 44.4, "unit": "% IgG"}, {"measurement": "HSA (absolute corrected) Freq./plate OD>c", "setting": "PMA 0.25 ng/ml, 5 Gy, 20k/Well", "value": 32.1, "unit": "% total"}, {"measurement": "HSA (absolute corrected) Freq./plate OD>c and rbIgG+", "setting": "PMA 0.25 ng/ml, 5 Gy, 20k/Well", "value": 38, "unit": "% IgG"}, {"measurement": "HSA (absolute corrected) Freq./plate OD>c", "setting": "PMA 0.25 ng/ml, 8 Gy, 20k/Well", "value": 32.1, "unit": "% total"}, {"measurement": "HSA (absolute corrected) Freq./plate OD>c and rbIgG+", "setting": "PMA 0.25 ng/ml, 8 Gy, 20k/Well", "value": 36.5, "unit": "% IgG"}, {"measurement": "HSA (absolute corrected) Freq./plate OD>c", "setting": "[11]", "value": 13.1, "unit": "% total"}, {"measurement": "HSA (absolute corrected) Freq./plate OD>c and rbIgG+", "setting": "[11]", "value": 47.1, "unit": "% IgG"}, {"measurement": "HSA (absolute corrected) Freq./plate OD>c", "setting": "PMA 0.57 ng/ml, 3 Gy, 15k/Well", "value": 11.9, "unit": "% total"}, {"measurement": "HSA (absolute corrected) Freq./plate OD>c and rbIgG+", "setting": "PMA 0.57 ng/ml, 3 Gy, 15k/Well", "value": 33.3, "unit": "% IgG"}, {"measurement": "HSA (absolute corrected) Freq./plate OD>c", "setting": "PMA 0.57 ng/ml, 4 Gy, 20k/Well", "value": 26.2, "unit": "% total"}, {"measurement": "HSA (absolute corrected) Freq./plate OD>c and rbIgG+", "setting": "PMA 0.57 ng/ml, 4 Gy, 20k/Well", "value": 36.1, "unit": "% IgG"}, {"measurement": "HSA (absolute corrected) Freq./plate OD>c", "setting": "PMA 0.57 ng/ml, 5 Gy, 20k/Well", "value": 38.1, "unit": "% total"}, {"measurement": "HSA (absolute corrected) Freq./plate OD>c and rbIgG+", "setting": "PMA 0.57 ng/ml, 5 Gy, 20k/Well", "value": 43.8, "unit": "% IgG"}, {"measurement": "HSA (absolute corrected) Freq./plate OD>c", "setting": "PMA 0.57 ng/ml, 8 Gy, 20k/Well", "value": 35.7, "unit": "% total"}, {"measurement": "HSA (absolute corrected) Freq./plate OD>c and rbIgG+", "setting": "PMA 0.57 ng/ml, 8 Gy, 20k/Well", "value": 44.1, "unit": "% IgG"}, {"measurement": "HSA (absolute corrected) Freq./plate OD>c", "setting": "[12]", "value": 40.5, "unit": "% total"}, {"measurement": "HSA (absolute corrected) Freq./plate OD>c and rbIgG+", "setting": "[12]", "value": 46.5, "unit": "% IgG"}, {"measurement": "HSA (absolute corrected) Freq./plate OD>c", "setting": "[13]", "value": 3.6, "unit": "% total"}, {"measurement": "HSA (absolute corrected) Freq./plate OD>c and rbIgG+", "setting": "[13]", "value": 42.9, "unit": "% IgG"}, {"measurement": "HSA (absolute corrected) Freq./plate OD>c", "setting": "PMA 1.3 ng/ml, 4 Gy, 20k/Well", "value": 31, "unit": "% total"}, {"measurement": "HSA (absolute corrected) Freq./plate OD>c and rbIgG+", "setting": "PMA 1.3 ng/ml, 4 Gy, 20k/Well", "value": 42.6, "unit": "% IgG"}, {"measurement": "HSA (absolute corrected) Freq./plate OD>c", "setting": "PMA 1.3 ng/ml, 5 Gy, 20k/Well", "value": 34.5, "unit": "% total"}, {"measurement": "HSA (absolute corrected) Freq./plate OD>c and rbIgG+", "setting": "PMA 1.3 ng/ml, 5 Gy, 20k/Well", "value": 40.8, "unit": "% IgG"}, {"measurement": "HSA (absolute corrected) Freq./plate OD>c", "setting": "PMA 1.3 ng/ml, 8 Gy, 20k/Well", "value": 36.9, "unit": "% total"}, {"measurement": "HSA (absolute corrected) Freq./plate OD>c and rbIgG+", "setting": "PMA 1.3 ng/ml, 8 Gy, 20k/Well", "value": 40.5, "unit": "% IgG"}, {"measurement": "HSA (absolute corrected) Freq./plate OD>c", "setting": "PMA 1.3 ng/ml, 50 Gy, 50k/Well", "value": 40.5, "unit": "% total"}, {"measurement": "HSA (absolute corrected) Freq./plate OD>c and rbIgG+", "setting": "PMA 1.3 ng/ml, 50 Gy, 50k/Well", "value": 47.1, "unit": "% IgG"}]}
